{"source": "ChEMBL document CHEMBL1201861", "about": "“Genomics of Drug Sensitity in Cancer screening data, Wellcome Trust Sanger Institute”", "test_in_all_cases": "cells", "key": {"SW756": {"system": "SW756", "format": "functional, cell-based, Homo sapiens", "settings": "Homo sapiens, SW756", "description": "SANGER: Inhibition of human SW756 cell growth in a cell viability assay."}, "SK-MEL-2": {"system": "SK-MEL-2", "format": "functional, cell-based, Homo sapiens", "settings": "Homo sapiens, SK-MEL-2", "description": "SANGER: Inhibition of human SK-MEL-2 cell growth in a cell viability assay."}, "697": {"system": "697", "format": "functional, cell-based", "settings": "Homo sapiens", "description": "SANGER: Inhibition of human 697 cell growth in a cell viability assay."}, "MOLT-4": {"system": "MOLT-4", "format": "functional, cell-based", "settings": "Homo sapiens", "description": "SANGER: Inhibition of human MOLT-4 cell growth in a cell viability assay."}, "LCLC-97TM1": {"system": "LCLC-97TM1", "format": "functional, cell-based, Homo sapiens", "settings": "Homo sapiens, LCLC-97TM1", "description": "SANGER: Inhibition of human LCLC-97TM1 cell growth in a cell viability assay."}, "ONS-76": {"system": "ONS-76", "format": "functional, cell-based, Homo sapiens", "settings": "Homo sapiens, ONS-76", "description": "SANGER: Inhibition of human ONS-76 cell growth in a cell viability assay."}, "MZ7-mel": {"system": "MZ7-mel", "format": "functional, cell-based, Homo sapiens", "settings": "Homo sapiens, MZ7-mel", "description": "SANGER: Inhibition of human MZ7-mel cell growth in a cell viability assay."}, "HEL": {"system": "HEL", "format": "functional, cell-based, Homo sapiens", "settings": "Homo sapiens, HEL", "description": "SANGER: Inhibition of human HEL cell growth in a cell viability assay."}, "CAL-33": {"system": "CAL-33", "format": "functional, cell-based, Homo sapiens", "settings": "Homo sapiens, CAL-33", "description": "SANGER: Inhibition of human CAL-33 cell growth in a cell viability assay."}, "HAL-01": {"system": "HAL-01", "format": "functional, cell-based", "settings": "Homo sapiens", "description": "SANGER: Inhibition of human HAL-01 cell growth in a cell viability assay."}, "MFM-223": {"system": "MFM-223", "format": "functional, cell-based, Homo sapiens", "settings": "Homo sapiens, MFM-223", "description": "SANGER: Inhibition of human MFM-223 cell growth in a cell viability assay."}, "H4": {"system": "H4", "format": "functional, cell-based", "settings": "Homo sapiens", "description": "SANGER: Inhibition of human H4 cell growth in a cell viability assay."}, "NCI-H1155": {"system": "NCI-H1155", "format": "functional, cell-based", "settings": "Homo sapiens", "description": "SANGER: Inhibition of human NCI-H1155 cell growth in a cell viability assay."}, "NCI-H1651": {"system": "NCI-H1651", "format": "functional, cell-based, Homo sapiens", "settings": "Homo sapiens, NCI-H1651", "description": "SANGER: Inhibition of human NCI-H1651 cell growth in a cell viability assay."}, "ES3": {"system": "ES3", "format": "functional, cell-based, Homo sapiens", "settings": "Homo sapiens, ES3", "description": "SANGER: Inhibition of human ES3 cell growth in a cell viability assay."}, "BCPAP": {"system": "BCPAP", "format": "functional, cell-based, Homo sapiens", "settings": "Homo sapiens, BCPAP", "description": "SANGER: Inhibition of human BCPAP cell growth in a cell viability assay."}, "GOTO": {"system": "GOTO", "format": "functional, cell-based, Homo sapiens", "settings": "Homo sapiens, GOTO", "description": "SANGER: Inhibition of human GOTO cell growth in a cell viability assay."}, "CAL-54": {"system": "CAL-54", "format": "functional, cell-based, Homo sapiens", "settings": "Homo sapiens, CAL-54", "description": "SANGER: Inhibition of human CAL-54 cell growth in a cell viability assay."}, "SK-N-DZ": {"system": "SK-N-DZ", "format": "functional, cell-based, Homo sapiens", "settings": "Homo sapiens, SK-N-DZ", "description": "SANGER: Inhibition of human SK-N-DZ cell growth in a cell viability assay."}, "NMC-G1": {"system": "NMC-G1", "format": "functional, cell-based, Homo sapiens", "settings": "Homo sapiens, NMC-G1", "description": "SANGER: Inhibition of human NMC-G1 cell growth in a cell viability assay."}, "GMS-10": {"system": "GMS-10", "format": "functional, cell-based, Homo sapiens", "settings": "Homo sapiens, GMS-10", "description": "SANGER: Inhibition of human GMS-10 cell growth in a cell viability assay."}, "HCC1806": {"system": "HCC1806", "format": "functional, cell-based, Homo sapiens", "settings": "Homo sapiens, HCC1806", "description": "SANGER: Inhibition of human HCC1806 cell growth in a cell viability assay."}, "EW-18": {"system": "EW-18", "format": "functional, cell-based", "settings": "Homo sapiens", "description": "SANGER: Inhibition of human EW-18 cell growth in a cell viability assay."}, "HuO-3N1": {"system": "HuO-3N1", "format": "functional, cell-based, Homo sapiens", "settings": "Homo sapiens, HuO-3N1", "description": "SANGER: Inhibition of human HuO-3N1 cell growth in a cell viability assay."}, "NB5": {"system": "NB5", "format": "functional, cell-based, Homo sapiens", "settings": "Homo sapiens, NB5", "description": "SANGER: Inhibition of human NB5 cell growth in a cell viability assay."}, "Ca-Ski": {"system": "Ca-Ski", "format": "functional, cell-based", "settings": "Homo sapiens", "description": "SANGER: Inhibition of human Ca-Ski cell growth in a cell viability assay."}, "CAL-39": {"system": "CAL-39", "format": "functional, cell-based, Homo sapiens", "settings": "Homo sapiens, CAL-39", "description": "SANGER: Inhibition of human CAL-39 cell growth in a cell viability assay."}, "GI-ME-N": {"system": "GI-ME-N", "format": "functional, cell-based, Homo sapiens", "settings": "Homo sapiens, GI-ME-N", "description": "SANGER: Inhibition of human GI-ME-N cell growth in a cell viability assay."}, "COLO-800": {"system": "COLO-800", "format": "functional, cell-based, Homo sapiens", "settings": "Homo sapiens, COLO-800", "description": "SANGER: Inhibition of human COLO-800 cell growth in a cell viability assay."}, "TE-12": {"system": "TE-12", "format": "functional, cell-based", "settings": "Homo sapiens", "description": "SANGER: Inhibition of human TE-12 cell growth in a cell viability assay."}, "MCF7": {"system": "MCF7", "format": "functional, cell-based, Homo sapiens", "settings": "Homo sapiens, MCF7", "description": "SANGER: Inhibition of human MCF7 cell growth in a cell viability assay."}, "BHY": {"system": "BHY", "format": "functional, cell-based, Homo sapiens", "settings": "Homo sapiens, BHY", "description": "SANGER: Inhibition of human BHY cell growth in a cell viability assay."}, "NCI-H1437": {"system": "NCI-H1437", "format": "functional, cell-based, Homo sapiens", "settings": "Homo sapiens, NCI-H1437", "description": "SANGER: Inhibition of human NCI-H1437 cell growth in a cell viability assay."}, "M059J": {"system": "M059J", "format": "functional, cell-based, Homo sapiens", "settings": "Homo sapiens, M059J", "description": "SANGER: Inhibition of human M059J cell growth in a cell viability assay."}, "EC-GI-10": {"system": "EC-GI-10", "format": "functional, cell-based, Homo sapiens", "settings": "Homo sapiens, EC-GI-10", "description": "SANGER: Inhibition of human EC-GI-10 cell growth in a cell viability assay."}, "KYSE-410": {"system": "KYSE-410", "format": "functional, cell-based, Homo sapiens", "settings": "Homo sapiens, KYSE-410", "description": "SANGER: Inhibition of human KYSE-410 cell growth in a cell viability assay."}, "TE-1": {"system": "TE-1", "format": "functional, cell-based, Homo sapiens", "settings": "Homo sapiens, TE-1", "description": "SANGER: Inhibition of human TE-1 cell growth in a cell viability assay."}, "SK-MEL3": {"system": "SK-MEL3", "format": "functional, cell-based, Homo sapiens, SK-MEL-3", "settings": "Homo sapiens, SK-MEL3", "description": "SANGER: Inhibition of human SK-MEL-3 cell growth in a cell viability assay."}, "NCI-H1648": {"system": "NCI-H1648", "format": "functional, cell-based, Homo sapiens", "settings": "Homo sapiens, NCI-H1648", "description": "SANGER: Inhibition of human NCI-H1648 cell growth in a cell viability assay."}, "MHH-PREB-1": {"system": "MHH-PREB-1", "format": "functional, cell-based", "settings": "Homo sapiens", "description": "SANGER: Inhibition of human MHH-PREB-1 cell growth in a cell viability assay."}, "A498": {"system": "A498", "format": "functional, cell-based, Homo sapiens", "settings": "Homo sapiens, A498", "description": "SANGER: Inhibition of human A498 cell growth in a cell viability assay."}, "HDLM-2": {"system": "HDLM-2", "format": "functional, cell-based", "settings": "Homo sapiens", "description": "SANGER: Inhibition of human HDLM-2 cell growth in a cell viability assay."}, "ASPC1": {"system": "ASPC1", "format": "functional, cell-based, Homo sapiens", "settings": "Homo sapiens, ASPC1", "description": "SANGER: Inhibition of human AsPC-1 cell growth in a cell viability assay."}, "KYSE-450": {"system": "KYSE-450", "format": "functional, cell-based", "settings": "Homo sapiens", "description": "SANGER: Inhibition of human KYSE-450 cell growth in a cell viability assay."}, "NCI-H1792": {"system": "NCI-H1792", "format": "functional, cell-based, Homo sapiens", "settings": "Homo sapiens, NCI-H1792", "description": "SANGER: Inhibition of human NCI-H1792 cell growth in a cell viability assay."}, "DSH1": {"system": "DSH1", "format": "functional, cell-based, Homo sapiens", "settings": "Homo sapiens, DSH1", "description": "SANGER: Inhibition of human DSH1 cell growth in a cell viability assay."}, "CCRF-CEM": {"system": "CCRF-CEM", "format": "functional, cell-based", "settings": "Homo sapiens", "description": "SANGER: Inhibition of human CCRF-CEM cell growth in a cell viability assay."}, "MDA-MB-175-VII": {"system": "MDA-MB-175-VII", "format": "functional, cell-based, Homo sapiens", "settings": "Homo sapiens, MDA-MB-175-VII"}, "A673": {"system": "A673", "format": "functional, cell-based, Homo sapiens", "settings": "Homo sapiens, A673", "description": "SANGER: Inhibition of human A673 cell growth in a cell viability assay."}, "NCI-H82": {"system": "NCI-H82", "format": "functional, cell-based", "settings": "Homo sapiens", "description": "SANGER: Inhibition of human NCI-H82 cell growth in a cell viability assay."}, "GP5d": {"system": "GP5d", "format": "functional, cell-based, Homo sapiens", "settings": "Homo sapiens, GP5d", "description": "SANGER: Inhibition of human GP5d cell growth in a cell viability assay."}, "VMRC-RCZ": {"system": "VMRC-RCZ", "format": "functional, cell-based", "settings": "Homo sapiens", "description": "SANGER: Inhibition of human VMRC-RCZ cell growth in a cell viability assay."}}, "data": [{"smiles": "CCC1=C[C@@H]2CN(C1)Cc1c([nH]c3ccccc13)[C@@](C(=O)OC)(c1cc3c(cc1OC)N(C)[C@H]1[C@@](O)(C(=O)OC)[C@H](OC(C)=O)[C@]4(CC)C=CCN5CC[C@]31[C@@H]54)C2", "note": "[VINORELBINE]", "values": [{"measurement": "IC50", "setting": "SW756", "result": "> 64", "unit": "nM"}, {"measurement": "IC50", "setting": "SK-MEL-2", "result": 7.18, "unit": "nM"}, {"measurement": "IC50", "setting": "697", "result": 4.23, "unit": "nM"}, {"measurement": "IC50", "setting": "MOLT-4", "result": 6.66, "unit": "nM"}, {"measurement": "IC50", "setting": "LCLC-97TM1", "result": 1.56, "unit": "nM"}, {"measurement": "IC50", "setting": "ONS-76", "result": 3.3, "unit": "nM"}, {"measurement": "IC50", "setting": "MZ7-mel", "result": 10.2, "unit": "nM"}, {"measurement": "IC50", "setting": "HEL", "result": 38.3, "unit": "nM"}, {"measurement": "IC50", "setting": "CAL-33", "result": 5.02, "unit": "nM"}, {"measurement": "IC50", "setting": "HAL-01", "result": "> 64", "unit": "nM"}, {"measurement": "IC50", "setting": "MFM-223", "result": "> 64", "unit": "nM"}, {"measurement": "IC50", "setting": "H4", "result": 7.85, "unit": "nM"}, {"measurement": "IC50", "setting": "NCI-H1155", "result": "> 64", "unit": "nM"}, {"measurement": "IC50", "setting": "NCI-H1651", "result": 60.6, "unit": "nM"}, {"measurement": "IC50", "setting": "ES3", "result": 28.1, "unit": "nM"}, {"measurement": "IC50", "setting": "BCPAP", "result": 2.98, "unit": "nM"}, {"measurement": "IC50", "setting": "GOTO", "result": "> 64", "unit": "nM"}, {"measurement": "IC50", "setting": "CAL-54", "result": "> 64", "unit": "nM"}, {"measurement": "IC50", "setting": "SK-N-DZ", "result": "> 64", "unit": "nM"}, {"measurement": "IC50", "setting": "NMC-G1", "result": 14.9, "unit": "nM"}, {"measurement": "IC50", "setting": "GMS-10", "result": "> 64", "unit": "nM"}, {"measurement": "IC50", "setting": "HCC1806", "result": 23.9, "unit": "nM"}, {"measurement": "IC50", "setting": "EW-18", "result": 7.05, "unit": "nM"}, {"measurement": "IC50", "setting": "HuO-3N1", "result": 13, "unit": "nM"}, {"measurement": "IC50", "setting": "NB5", "result": "> 64", "unit": "nM"}, {"measurement": "IC50", "setting": "Ca-Ski", "result": 19.1, "unit": "nM"}, {"measurement": "IC50", "setting": "CAL-39", "result": 4.26, "unit": "nM"}, {"measurement": "IC50", "setting": "GI-ME-N", "result": 5.76, "unit": "nM"}, {"measurement": "IC50", "setting": "COLO-800", "result": 17, "unit": "nM"}, {"measurement": "IC50", "setting": "TE-12", "result": "> 64", "unit": "nM"}, {"measurement": "IC50", "setting": "MCF7", "result": 5.01, "unit": "nM"}, {"measurement": "IC50", "setting": "BHY", "result": 9.95, "unit": "nM"}, {"measurement": "IC50", "setting": "NCI-H1437", "result": 7.11, "unit": "nM"}, {"measurement": "IC50", "setting": "M059J", "result": 14.1, "unit": "nM"}, {"measurement": "IC50", "setting": "EC-GI-10", "result": "> 64", "unit": "nM"}, {"measurement": "IC50", "setting": "KYSE-410", "result": 6.21, "unit": "nM"}, {"measurement": "IC50", "setting": "TE-1", "result": 13.1, "unit": "nM"}, {"measurement": "IC50", "setting": "SK-MEL3", "result": 17.3, "unit": "nM"}, {"measurement": "IC50", "setting": "NCI-H1648", "result": 3.92, "unit": "nM"}, {"measurement": "IC50", "setting": "MHH-PREB-1", "result": 6.88, "unit": "nM"}, {"measurement": "IC50", "setting": "A498", "result": 26.2, "unit": "nM"}, {"measurement": "IC50", "setting": "HDLM-2", "result": 15.9, "unit": "nM"}, {"measurement": "IC50", "setting": "ASPC1", "result": "> 64", "unit": "nM"}, {"measurement": "IC50", "setting": "KYSE-450", "result": 9.74, "unit": "nM"}, {"measurement": "IC50", "setting": "NCI-H1792", "result": "> 64", "unit": "nM"}, {"measurement": "IC50", "setting": "DSH1", "result": 4.87, "unit": "nM"}, {"measurement": "IC50", "setting": "CCRF-CEM", "result": 4.56, "unit": "nM"}, {"measurement": "IC50", "setting": "MDA-MB-175-VII", "result": "> 64", "unit": "nM"}, {"measurement": "IC50", "setting": "A673", "result": 7.27, "unit": "nM"}, {"measurement": "IC50", "setting": "NCI-H82", "result": 60, "unit": "nM"}, {"measurement": "IC50", "setting": "GP5d", "result": 7.84, "unit": "nM"}, {"measurement": "IC50", "setting": "VMRC-RCZ", "result": 18.8, "unit": "nM"}]}]}
